From patent US8178136B2, “Composition based on vegetal extracts of Ajuga reptans for preventing hair loss, stimulating the growth of hair, regulating the production of sebum” (Giuliani S.p.A., priority 2005, dated 2012)
Where “and” joins values, the source holds several entries; their conditions need not be identical. Equal entries are not always repeated.

System: 5α-reductase
Assay: in-vivo inhibitory activity of 5α-reductase: haematic levels of DHT in rats after oral administration
Set-up: species or system rat
Settings: for Seric concentrations of DHT: individual rat values; for Seric concentrations of DHT, average: basal average 335.7
Description: A study was carried out to determine in-vivo the inhibitory activity of 5α-reductase on the part of a total extract deriving from a cellular culture of Ajuga reptans.
The study was effected by determining the haematic levels of DHT (5α-dihydrotestosterone) on rats after administration of the extract being studied.
For the in-vivo study of the inhibition of 5α-reductase, Sprague-Dawley adult male rats were used (Charles River Italia) having a body weight of 200-250 g.
The animals were stalled under standard conditions: at a temperature of 22/23° C., with 65% relative humidity, exposing them to illumination cycles of 12 h light/12 h darkness.
A standard diet in the form of pellets (standard diet, Charles River) was administered to the rats, with water ad libitum
The experimentation was carried out according to protocols authorized by the Committee for the Care and Use of Animals of the Università degli Studi of Milan. Tests were carried out on the rats, effected from the retro-orbital plexus, immediately before the pharmalogical treatment (t0) and subsequently at a distance of 3, 6 and 8 hours after administration.
The administration of the substances being studied was effected orally.
In correspondence with each test on the animals treated, tests were also effected on non-treated animals to determine the basal analyte level. Both testosterone and DHT are in fact characterized by a significant circadian fluctuation.
The plasma obtained from the whole blood treated with EDTA after centrifugation was preserved at −20° C. until dosage.
The plasmatic concentrations of DHT (dihydrotestosterone) were determined with a commercial kit (DSL, Chematil, Angri, SA) after extraction of the samples.
All the samples of an experimental set were dosed together to reduce the inter-analytic variability.

CC(C)(C)NC(=O)[C@H]1CC[C@H]2[C@@H]3CC[C@H]4NC(=O)C=C[C@]4(C)[C@H]3CC[C@]12C [Finasteride]
Seric concentrations of DHT (Finasteride 1 mg oral, 3 hrs): 569.6 pg/mL and 404.6 pg/mL and 530.0 pg/mL and 298.1 pg/mL and 505.3 pg/mL and 300.0 pg/mL | Seric concentrations of DHT, average (Finasteride 1 mg oral, 3 hrs, n=6): 434.6 pg/mL | Seric concentrations of DHT (Finasteride 1 mg oral, 6 hrs): 592.1 pg/mL and 148.5 pg/mL and 420.1 pg/mL and 404.1 pg/mL and 565.0 pg/mL and 379.6 pg/mL | Seric concentrations of DHT, average (Finasteride 1 mg oral, 6 hrs, n=6): 418.2 pg/mL | Seric concentrations of DHT (Finasteride 1 mg oral, 8 hrs): 530.1 pg/mL and 173.1 pg/mL and 110.0 pg/mL and 706.7 pg/mL and 140.1 pg/mL and 503.9 pg/mL | Seric concentrations of DHT, average (Finasteride 1 mg oral, 8 hrs, n=6): 360.6 pg/mL | Seric concentrations of DHT (Finasteride 5 mg oral, 3 hrs): 641.0 pg/mL and 924.2 pg/mL and 569.4 pg/mL and 217.1 pg/mL and 618.6 pg/mL and 151.2 pg/mL | Seric concentrations of DHT, average (Finasteride 5 mg oral, 3 hrs, n=6): 520.2 pg/mL | Seric concentrations of DHT (Finasteride 5 mg oral, 6 hrs): 49.7 pg/mL and 128.3 pg/mL and 176.9 pg/mL and 81.2 pg/mL and 205.2 pg/mL and 103.6 pg/mL and 54.4 pg/mL and 60.7 pg/mL | Seric concentrations of DHT, average (Finasteride 5 mg oral, 6 hrs, n=8): 107.5 pg/mL | Seric concentrations of DHT (Finasteride 5 mg oral, 8 hrs): 576.6 pg/mL and 250.9 pg/mL and 300.1 pg/mL and 201.6 pg/mL and 108.8 pg/mL and 745.4 pg/mL | Seric concentrations of DHT, average (Finasteride 5 mg oral, 8 hrs, n=6): 363.9 pg/mL | trend of the concentration of DHT after administration (rats, oral, vs. basal levels): 8 hours after treatment, the DHT rises returning to the basal levels
